# According to article PMC12851022, “Targeting the Spliceosomal Protein USP39 Through Allosteric Ligands and PROTAC‐Induced Degradation” (Angewandte Chemie (International Ed. in English), 2025):
# Assays:
# USP39-OFP [1] = target: T1, USP39-OFP (Homo sapiens, UniProt Q53GS9); test: In-cell fluorescence degradation assay in HeLa-USP39-OFP cells; assay type: cell-based; details: 50 nM, 16-h serum starvation, 24-h treatment
# T1 construct: expressed in transfected cells; host or cells: HeLa
# Experimental: To evaluate the degradation efficacy of USP39_PROTACs, we adapted our recently developed cellular fluorescence assay in HeLa cells transiently overexpressing USP39‐OFP (HeLa‐USP39‐OFP).^[ [32] ^] Various experimental conditions were tested, including different initial seeding densities, the presence or absence of serum starvation, varying treatment durations, and compound concentration gradients (Figure 4a). Among these, a 16‐h serum starvation followed by a 24‐h treatment provided the most consistent and reproducible degradation of USP39 and was used for further experiments. Under these experimental conditions, a series of CRBN‐ and VHL‐based PROTACs were evaluated in an in‐cell fluorescence assay at a concentration of 50 nM to assess their ability to induce target protein degradation (Figure 4b, Table SI4). […]
# Figure 4 Effective and selective degradation of USP39 in cells by USP39‐PROTACs. a) Optimization of cellular degradation assay in HeLa cells transiently overexpressing USP39‑OFP (HeLa‐USP39‐OFP). […] Western blot comparing USP39 levels in VHL WT and VHL KO HeLa cells treated with USP39_PROTAC_V1. k) Fluorescence assay in HEK293T cells co‐expressing USP39‑OFP and either VHL_WT‑EGFP or VHL_m (Δ91–121). […]
# T1 sequence (P40337 whole entry, one chain of several, further chain): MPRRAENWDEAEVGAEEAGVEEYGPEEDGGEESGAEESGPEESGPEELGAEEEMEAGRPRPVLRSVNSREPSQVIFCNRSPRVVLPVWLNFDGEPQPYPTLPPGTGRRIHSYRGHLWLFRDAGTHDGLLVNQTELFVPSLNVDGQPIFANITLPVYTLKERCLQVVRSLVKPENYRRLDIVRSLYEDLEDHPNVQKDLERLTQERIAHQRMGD
# T1 sequence (Q15370 whole entry partner, one chain of several): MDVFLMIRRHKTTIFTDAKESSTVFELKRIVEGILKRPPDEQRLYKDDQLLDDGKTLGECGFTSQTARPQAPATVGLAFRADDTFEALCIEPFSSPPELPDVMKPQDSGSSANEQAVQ
# T1 sequence (Q15369 whole entry partner, one chain of several): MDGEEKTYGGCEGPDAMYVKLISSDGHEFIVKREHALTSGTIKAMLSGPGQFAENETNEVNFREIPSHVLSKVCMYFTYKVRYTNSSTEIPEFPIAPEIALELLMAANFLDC
# USP39-OFP [2] = target: T2, USP39-OFP (Homo sapiens, UniProt Q53GS9); test: Fluorescence degradation assay in HEK293T cells co-expressing USP39-OFP and VHL_m (Δ91–121); assay type: cell-based
# T2 construct: expressed in transfected cells; host or cells: HEK293T
# T2 sequence (Q53GS9 1-565): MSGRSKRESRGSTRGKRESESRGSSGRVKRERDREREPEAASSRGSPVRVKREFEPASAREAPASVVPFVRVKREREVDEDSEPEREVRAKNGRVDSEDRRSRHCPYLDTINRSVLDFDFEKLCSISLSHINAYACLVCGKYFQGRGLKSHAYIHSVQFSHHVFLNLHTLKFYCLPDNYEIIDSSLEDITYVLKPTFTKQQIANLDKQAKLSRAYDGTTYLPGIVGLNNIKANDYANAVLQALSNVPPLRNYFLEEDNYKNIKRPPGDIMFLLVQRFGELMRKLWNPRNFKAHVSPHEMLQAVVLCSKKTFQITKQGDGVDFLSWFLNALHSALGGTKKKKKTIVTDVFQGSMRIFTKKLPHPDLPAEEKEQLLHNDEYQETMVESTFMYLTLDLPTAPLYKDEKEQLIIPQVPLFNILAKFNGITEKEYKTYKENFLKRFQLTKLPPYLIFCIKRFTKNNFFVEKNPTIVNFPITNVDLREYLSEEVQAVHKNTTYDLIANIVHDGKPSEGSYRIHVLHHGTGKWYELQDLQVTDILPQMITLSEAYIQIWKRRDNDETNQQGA
# Experimental: (§1) Figure 4 Effective and selective degradation of USP39 in cells by USP39‐PROTACs. a) Optimization of cellular degradation assay in HeLa cells transiently overexpressing USP39‑OFP (HeLa‐USP39‐OFP). […] GAPDH was used as a loading control. g) Proteasome dependence of USP39 degradation. HeLa‐WT cells were co‐treated with MG132 (0.25 µM) or DMSO control and USP39_PROTAC_V1 for 24 h ST. h) Representative immunofluorescence images of HeLa‐USP39_OFP cells treated with DMSO (NT), USP39_PROTAC_V1 (10 nM, 24 h), or USP39_PROTAC_V1 + MLN4924 (1 µM), stained for USP39 (red) and nuclei (blue). i) Quantification of USP39 degradation by fluorescence microscopy, showing DC50 values of 13 nM without MLN4924 (orange) and 204 nM with MLN4924 (blue) (MLN4924 = 5 uM). j) VHL‐dependence of PROTAC‐induced degradation. Schematic of PROTAC recruitment to VHL via hydroxyl‐proline interactions (His115, Ser111). Western blot comparing USP39 levels in VHL WT and VHL KO HeLa cells treated with USP39_PROTAC_V1. k) Fluorescence assay in HEK293T cells co‐expressing USP39‑OFP and either VHL_WT‑EGFP or VHL_m (Δ91–121). […] Comparison of untreated (NT) and USP39_PROTAC_V1–treated (10 nM, 24 h) samples. Percent spliced/unspliced (S/U) ratios are shown, reflecting USP39‐deficiency–associated splicing defects. Data represent at least four independent biological replicates. […]
# [3] = target: T3, USP39 / VHL_m ternary complex (Homo sapiens, UniProt P40337+Q53GS9, DEL91-121); test: FRET assay of ternary complex formation in cells, VHL_m; assay type: cell-based; details: in the presence of MLN4924
# T3 construct: expressed in transfected cells; host or cells: HEK293T
# T3 sequence (P40337 with tags, fused parts or gaps DEL91-121, one chain of several): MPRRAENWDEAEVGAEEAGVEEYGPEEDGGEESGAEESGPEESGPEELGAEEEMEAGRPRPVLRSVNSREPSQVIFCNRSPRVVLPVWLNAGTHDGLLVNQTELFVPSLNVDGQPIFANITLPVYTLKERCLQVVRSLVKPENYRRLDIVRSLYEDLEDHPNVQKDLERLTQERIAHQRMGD
# Experimental: as §1
# HeLa-WT proteome = test: Proteome-wide LC-MS/MS and western blot selectivity analysis in HeLa-WT cells; assay type: cell-based, human
# Experimental: Figure 4 Effective and selective degradation of USP39 in cells by USP39‐PROTACs. a) Optimization of cellular degradation assay in HeLa cells transiently overexpressing USP39‑OFP (HeLa‐USP39‐OFP). […] GAPDH was used as a loading control. g) Proteasome dependence of USP39 degradation. HeLa‐WT cells were co‐treated with MG132 (0.25 µM) or DMSO control and USP39_PROTAC_V1 for 24 h ST. h) Representative immunofluorescence images of HeLa‐USP39_OFP cells treated with DMSO (NT), USP39_PROTAC_V1 (10 nM, 24 h), or USP39_PROTAC_V1 + MLN4924 (1 µM), stained for USP39 (red) and nuclei (blue). i) Quantification of USP39 degradation by fluorescence microscopy, showing DC50 values of 13 nM without MLN4924 (orange) and 204 nM with MLN4924 (blue) (MLN4924 = 5 uM). j) VHL‐dependence of PROTAC‐induced degradation. Schematic of PROTAC recruitment to VHL via hydroxyl‐proline interactions (His115, Ser111). Western blot comparing USP39 levels in VHL WT and VHL KO HeLa cells treated with USP39_PROTAC_V1. k) Fluorescence assay in HEK293T cells co‐expressing USP39‑OFP and either VHL_WT‑EGFP or VHL_m (Δ91–121). […] Comparison of untreated (NT) and USP39_PROTAC_V1–treated (10 nM, 24 h) samples. Percent spliced/unspliced (S/U) ratios are shown, reflecting USP39‐deficiency–associated splicing defects. Data represent at least four independent biological replicates.
# To assess the selectivity of USP39 degradation, a proteome‐wide analysis was conducted using LC‐MS/MS based proteomics. […] These finding were further validated by western blot (WB) analysis, which confirmed consistent downregulation of USP39, ISG15, and NDRG1.
# USP39 / VHL = USP39 / VHL (Homo sapiens, UniProt P40337+Q53GS9); test: Co-immunoprecipitation of VHL with western blot for ubiquitin, USP39 and VHL; assay type: cell-based; details: in the presence of MLN4924
# Chain of USP39 / VHL (P40337 whole entry, one chain of several): as the sequence (P40337 whole entry, one chain of several, further chain) above
# Chain of USP39 / VHL (Q15370 whole entry partner, one chain of several): as the sequence (Q15370 whole entry partner, one chain of several) above
# Chain of USP39 / VHL (Q15369 whole entry partner, one chain of several): as the sequence (Q15369 whole entry partner, one chain of several) above
# USP39 [4] = target: T4, USP39 (Homo sapiens, UniProt Q53GS9); test: Western blot of USP39 levels in HeLa-WT cells; assay type: cell-based; parameters: endogenous in cells; host or cells: HeLa-WT; details: MG132 0.25 µM, 24 h ST
# T4 sequence (Q53GS9 1-565): T2 sequence (Q53GS9 1-565)
# Experimental: as §1
# USP39 [5] = target: T4, USP39; test: USP39 degradation across four cell lines (HeLa, HEK293T, LNCap, Kelly); assay type: cell-based; parameters: endogenous in cells; host or cells: HeLa-WT; HEK293T; LNCap; Kelly; details: for Concentration at which USP39 degradation was initiated: HeLa, HEK293T, LNCap, Kelly
compound,measurement,setting,value
Cc1ncsc1-c1ccc(CNC(=O)C2CC(O)CN2C(=O)C(NC(=O)CCOCCOCCOCCNC(=O)c2csc(Nc3ccc(Cl)cc3)n2)C(C)(C)C)cc1 (centres unmarked) [USP39_PROTAC_V1],USP39 degradation in in-cell fluorescence assay,USP39-OFP [1],robust degradation activity
same,Fold reduction of degradation effect in VHL_m versus VHL_WT cells,USP39-OFP [2],more than 80 fold
same,FRET signal of ternary complex formation,[3],minimal signal
same,USP39 level in proteome-wide analysis,"HeLa-WT proteome; 5 nM and 50 nM, 24 h, over 6000 detectable proteins, p < 0.0001, log2FC < -4",most significantly downregulated protein
same,NDRG1 and ISG15 levels (off-target),"HeLa-WT proteome; 5 nM and 50 nM, 24 h, proteomics, validated by WB",significant downregulation
same,USP5 and USP10 levels (homologues),HeLa-WT proteome; proteomic and immunoblot analyses,remained unaffected
same,Co-immunoprecipitation from VHL pull-downs,USP39 / VHL,enrichment of USP39 and polymerized ubiquitin
same,USP39 degradation under co-treatment with proteasome inhibitor MG132,USP39 [4],markedly suppressed USP39 degradation
same,Concentration above which USP39 levels recover (hook-effect),USP39 [5],above 500 nM
same,Concentration at which USP39 degradation was initiated,USP39 [5]; 6 h of treatment,5 nM
same,Concentration at which USP39 degradation was initiated,USP39 [5]; 24 h of treatment,1 nM
